Tests used:
ABTS antioxidant assay = settings: for ABTS percent inhibition (mean ± S.E.M): n=3; for ABTS IC50: ABTS radical scavenging
DPPH antioxidant assay = settings: for DPPH % inhibition (mean ± S.E.M): n=3; for DPPH IC50: DPPH radical scavenging
[1] = target: butyrylcholinesterase (BChE) (Homo sapiens, UniProt P06276); experiment: Anticholinesterase assay; type: biochemical
[2] = target: acetylcholinesterase (AChE) (Homo sapiens, UniProt P22303); experiment: biochemical
[3] = read-out: Percent BChE (mean ± SEM) inhibition

Chain of butyrylcholinesterase (BChE) (P06276 29-602, species assumed): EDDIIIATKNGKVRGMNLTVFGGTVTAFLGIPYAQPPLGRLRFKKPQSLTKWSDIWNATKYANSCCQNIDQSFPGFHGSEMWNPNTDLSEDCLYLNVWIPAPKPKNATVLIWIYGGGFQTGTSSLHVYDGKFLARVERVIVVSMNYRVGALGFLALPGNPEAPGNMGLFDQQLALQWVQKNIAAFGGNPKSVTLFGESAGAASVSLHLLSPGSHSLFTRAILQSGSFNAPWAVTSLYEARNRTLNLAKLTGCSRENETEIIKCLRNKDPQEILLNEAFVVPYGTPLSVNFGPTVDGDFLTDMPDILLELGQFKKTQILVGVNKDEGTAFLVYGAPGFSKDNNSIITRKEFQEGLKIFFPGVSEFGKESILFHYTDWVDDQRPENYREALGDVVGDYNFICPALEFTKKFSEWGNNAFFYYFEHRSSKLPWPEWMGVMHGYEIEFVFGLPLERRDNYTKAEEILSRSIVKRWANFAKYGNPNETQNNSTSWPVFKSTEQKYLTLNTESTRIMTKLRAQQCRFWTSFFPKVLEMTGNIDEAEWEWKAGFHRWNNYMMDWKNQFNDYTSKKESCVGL
Chain of acetylcholinesterase (AChE) (P22303 32-614, species assumed): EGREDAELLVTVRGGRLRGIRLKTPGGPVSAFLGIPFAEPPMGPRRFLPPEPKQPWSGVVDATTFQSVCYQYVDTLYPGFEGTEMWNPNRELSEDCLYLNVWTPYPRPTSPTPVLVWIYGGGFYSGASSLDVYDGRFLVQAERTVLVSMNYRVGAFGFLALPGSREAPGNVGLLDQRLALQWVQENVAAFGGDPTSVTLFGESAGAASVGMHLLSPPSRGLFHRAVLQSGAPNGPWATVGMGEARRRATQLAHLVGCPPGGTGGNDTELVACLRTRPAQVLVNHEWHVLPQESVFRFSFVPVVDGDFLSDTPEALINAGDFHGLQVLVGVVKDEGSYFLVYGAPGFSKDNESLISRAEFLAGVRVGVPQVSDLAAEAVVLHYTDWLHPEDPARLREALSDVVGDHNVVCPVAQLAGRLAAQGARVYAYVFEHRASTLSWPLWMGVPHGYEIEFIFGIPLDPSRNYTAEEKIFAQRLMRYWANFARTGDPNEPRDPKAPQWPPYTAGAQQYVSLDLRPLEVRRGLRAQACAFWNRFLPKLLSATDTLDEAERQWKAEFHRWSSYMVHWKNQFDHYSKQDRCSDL

| Structure (SMILES) | ABTS percent inhibition (mean ± S.E.M) (ABTS antioxidant assay; 62.5 μg/mL) [%] | ABTS percent inhibition (mean ± S.E.M) (ABTS antioxidant assay; 125 μg/mL) [%] | ABTS percent inhibition (mean ± S.E.M) (ABTS antioxidant assay; 250 μg/mL) [%] | ABTS percent inhibition (mean ± S.E.M) (ABTS antioxidant assay; 500 μg/mL) [%] | ABTS percent inhibition (mean ± S.E.M) (ABTS antioxidant assay; 1000 μg/mL) [%] | ABTS IC50 (ABTS antioxidant assay) [µg/mL] | DPPH % inhibition (mean ± S.E.M) (DPPH antioxidant assay; 62.5 μg/mL) [%] | DPPH % inhibition (mean ± S.E.M) (DPPH antioxidant assay; 125 μg/mL) [%] | DPPH % inhibition (mean ± S.E.M) (DPPH antioxidant assay; 250 μg/mL) [%] | DPPH % inhibition (mean ± S.E.M) (DPPH antioxidant assay; 500 μg/mL) [%] | DPPH % inhibition (mean ± S.E.M) (DPPH antioxidant assay; 1000 μg/mL) [%] | DPPH IC50 (DPPH antioxidant assay) [µg/mL] | inhibition at 62.5 µg/mL [1, 3] [%] | further results |
| --- | --- | --- | --- | --- | --- | --- | --- | --- | --- | --- | --- | --- | --- | --- |
| O=C1O[C@H]([C@@H](O)CO)C(O)=C1O [Ascorbic acid, reference compound] | 55.51±1.09 | 64.06±1.15 | 77.64±3.06 | 83.76±1.16 | 93.41±0.73 | 35 | 55.05±1.54 | 65.30±2.05 | 78.89±1.34 | 87.21±0.75 | 94.88±1.63 | 35 | – | – |
| O=C(O)CCCCC(=O)O [Compound VIII, Hexanedioic acid] | 41.70±1.06 | 50.02±1.11 | 62.19±0.90 | 70.10±1.20 | 80.23±1.37 | 125 | 41.17±1.97 | 51.10±2.39 | 63.13±2.17 | 72.84±1.87 | 81.64±2.76 | 118 | 40.6 ± 1.06 | IC50 [1]: 848 µM; inhibition at 125 µg/mL [1, 3]: 50.1 ± 2.16%; inhibition at 250 µg/mL [1, 3]: 61.2 ± 2.1%; inhibition at 500 µg/mL [1, 3]: 71.3 ± 1.1%; inhibition at 1000 µg/mL [1, 3]: 78.2 ± 1.31%; IC50 [2]: 835 µM; inhibition at 62.5 µg/mL ([2]; read-out: Percent AChE (mean ± SEM) inhibition, 62.5 μg/mL, n=3): 41.7 ± 3.01%; inhibition at 125 µg/mL ([2]; read-out: Percent AChE (mean ± SEM) inhibition, 125 μg/mL, n=3): 50.3 ± 2.1%; inhibition at 250 µg/mL ([2]; read-out: Percent AChE (mean ± SEM) inhibition, 250 μg/mL, n=3): 62.1 ± 2.41%; inhibition at 500 µg/mL ([2]; read-out: Percent AChE (mean ± SEM) inhibition, 500 μg/mL, n=3): 71.2 ± 2.37%; inhibition at 1000 µg/mL ([2]; read-out: Percent AChE (mean ± SEM) inhibition, 1000 μg/mL, n=3): 79.6 ± 2.1% |
| COc1ccc2c3c1O[C@H]1C[C@@H](O)C=C[C@@]31CCN(C)C2 [Galanthamine, reference compound] | – | – | – | – | – | – | – | – | – | – | – | – | 53.5 ± 1.69 | – |

From publication PMC6717395 (Drug Design, Development and Therapy, 2019)
